Earlier results as cited in patent publication US5369112A, “Method of treating cataracts caused by active oxygen” (Mitsubishi Gas Chemical Company, Inc., priority 1991, dated 1994).

Tests used:
[1] = 109th meeting of Japan Pharmacological Society, 1989; cited from earlier work
[2] = tested on: liver diseases caused by carbon tetrachloride, endotoxin shock and cataracts caused by hydrocortisone; conditions: Watanabe 1988; Matsumoto 1989; Nishigoori 1989; cited from earlier work
[3] = tested on: kidney; conditions: Watanabe et al, Hiroshima J. Med. Sci.; cited from earlier work

SMILES: O=C(O)c1cc(C(=O)O)c2c(n1)C(=O)C(=O)c1cc(C(=O)O)[nH]c1-2 [PQQ, pyrrolo quinoline quinone]
- active oxygen scavenging action [1]: strong active oxygen scavenging action
- inhibition of diseases [2]: inhibits liver diseases caused by carbon tetrachloride, endotoxin shock and cataracts caused by hydrocortisone
- kidney toxicity [3]: has kidney toxicity
